PubChem BioAssay AID2060512 (Molecular Pharmacology Branch, DTP, NCI, 2025)

Test system: 186277-243-T-J2-PDC complex spheroid viability
Experiment: Anticancer human tumor 186277-243-T-J2-PDC patient-derived colon adenocarcinoma cell line growth inhibition [GQUAD]
Details: for IC50: curve of first compound; for viability, T/C: stronger effect = lower value
Source text: DNA G-quadruplex Stabilizer Agents in Combinations in Complex Spheroids
A high-throughput screen of multi-cell type tumor spheroids was designed to identify active combinations of DNA G-quadruplex stabilizer agents and targeted small molecules. Complex spheroids include a stromal component modeled by human endothelial cells (HUVEC) and fibroblasts modeled by human mesenchymal stem cells (MSCs). The concentration ranges selected for each drug and investigational agent were based upon clinically achievable concentrations if the clinical Cmax of the agent was known.
Compounds. The drugs and investigational agents: pidnarulex (CX-5461; NSC782164), APTO-253 (NSC789042), BRACO-19 (NSC847499), peposertib (NSC802822), ceralasertib (NSC780249), elimusertib (NSC800525), camonsertib (NSC841442), AZD-1390 (NSC803789), olaparib (NSC753686), talazoparib (NSC767125), ART-558 (NSC835418), sotorasib (NSC818433), MRTX-1133 (NSC836407), SN-38 (NSC673596), topotecan (NSC609699), etoposide (NSC141540), doxorubicin (NSC123127), gemcitabine (NSC613327), 5-fluorouracil (NSC19893), paclitaxel (NSC125973), vemurafenib (NSC761431), panobinostat (NSC761190), R-306465 (JNJ-16241199; NSC773264), adavosertib (NSC754352), TP-3654 (NSC805149), carboplatin (NSC241240), KSQ-4279 (NSC840948), and staurosporine (NSC755774) were obtained from the National Cancer Institute (NCI) Developmental Therapeutics Program Chemical Repository (34). The FDA-approved anticancer drug set is available from the NCI Developmental Therapeutics Program. […] The stock solutions were prepared in dimethyl sulfoxide (DMSO, Sigma-Aldrich, St. Louis, MO, cat. D2650) at 800-fold the tested concentration and stored at -70 degrees C prior to their use. All drugs and investigational agents were tested over a range starting from a high concentration at or near the clinical Cmax and decreasing in half-log increments. If the clinical Cmax for an agent had not been determined, the highest concentration tested was 10 microM.
2.3 Cell Culture. All cells were maintained in an incubator at 37 degrees C and 5% CO2 with 95% humidity. The PDC lines were cultured according to standard operating procedures established by the NCI PDMR. All PDCs were thawed and cultured in Matrigel-coated flasks prepared with a working solution of 1X Ham's F-12 nutrient mix, without supplementation (Invitrogen, cat. 11765054), 100 U/mL penicillin-streptomycin (Invitrogen, cat. 15140122), and 2.5% Matrigel (Corning Inc., cat. 354248) for the first three passages. The 857933-349-R-J2-PDC line was cultured in 6C/Colon 1B media, which includes advanced DMEM/F-12 (Thermo Fisher Scientific, cat. 12634028), 10 mM HEPES (Thermo Fisher Scientific, cat. 15630080), 1X GlutaMAX supplement (Thermo Fisher Scientific, cat. 35050061), 0.1 mg/mL primocin (InvivoGen, cat. ant-pm-2), 10% defined fetal bovine serum, heat inactivated (HyClone Laboratories Inc., cat. SH30070.03HI), 50% L-WRN conditioned media (ATCC, cat. CRL-3276), 1.25 mM N-Acetyl-L-cysteine (Sigma-Aldrich, cat. A9165), 10 mM nicotinamide (Sigma-Aldrich, cat. N0636), 1X B-27 supplement (Thermo Fisher Scientific, cat. 17504044), 1X N-2 supplement (Thermo Fisher Scientific, cat. 17502048), 10 microM Y-27632 dihydrochloride (Tocris Bioscience, cat. 1254), and 50 ng/mL human EGF recombinant protein (Thermo Fisher Scientific, cat. PHG0311). The 485176-168-R4-J1-PDC line was cultured in Panc media, which includes all 6C/Colon 1B media components plus 100 ng/mL human FGF-10 (Thermo Fisher Scientific, cat. 100-26), 500 nM SB-431542 (Selleckchem, cat. S1067), and gastrin (Tocris, cat. 3006).
[…]

[1] = second compound 0.0316 µM, first compound 0.0316 µM
[2] = second compound 0.0316 µM, first compound 0.316 µM
[3] = second compound 0.1 µM, first compound 0.0316 µM
[4] = second compound 0.1 µM, first compound 0.316 µM
[5] = second compound 0.316 µM, first compound 0.0316 µM
[6] = second compound 0.316 µM, first compound 0.316 µM
[7] = second compound 1 µM, first compound 0.0316 µM
[8] = second compound 1 µM, first compound 0.316 µM
[9] = second compound 3.16 µM, first compound 0.0316 µM
[10] = second compound 3.16 µM, first compound 0.316 µM
[11] = second compound 10 µM, first compound 0.0316 µM
[12] = second compound 10 µM, first compound 0.316 µM
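Also: spheroids exposed to drugs for 7 days.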
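For viability, T/C in this document: 100% = DMSO vehicle control viability.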

Question: Which IC50 (second compound 0.0316 µM) does the source give for `Cc1cccc(N(C)C(=O)C2C(O)CCN2c2nc(C)cc(C(F)(F)F)c2C#N)c1` (centres undefined) + Cc1[nH]c2ccc(F)cc2c1-c1nc2c3cccnc3c3ncccc3c2[nH]1 here?
Answer: > 10000 nM

Question: And the IC50 (second compound 0.1 µM)?
Answer: > 10000 nM

Question: And the IC50 (second compound 0.316 µM)?
Answer: > 10000 nM

Question: What about the IC50 (second compound 1 µM) of the same molecule?
Answer: > 10000 nM

Question: And the IC50 (second compound 3.16 µM)?
Answer: > 10000 nM

Question: And the IC50 (second compound 10 µM)?
Answer: > 10000 nM

Question: What about the viability, T/C [1] of the same molecule?
Answer: 104%

Question: What about the viability, T/C (second compound 0.0316 µM, first compound 0.1 µM) of the same molecule?
Answer: 104%

Question: What about the viability, T/C [2] of the same molecule?
Answer: 98.2%

Question: What about the viability, T/C (second compound 0.0316 µM, first compound 1 µM) of the same molecule?
Answer: 95.8%

Question: And the viability, T/C (second compound 0.0316 µM, first compound 3.16 µM)?
Answer: 88.7%

Question: And the viability, T/C (second compound 0.0316 µM, first compound 10 µM)?
Answer: 106%

Question: What about the viability, T/C [3] of the same molecule?
Answer: 104%

Question: What about the viability, T/C (second compound 0.1 µM, first compound 0.1 µM) of the same molecule?
Answer: 97.1%

Question: What about the viability, T/C [4] of the same molecule?
Answer: 100%

Question: What about the viability, T/C (second compound 0.1 µM, first compound 1 µM) of the same molecule?
Answer: 92.6%

Question: And the viability, T/C (second compound 0.1 µM, first compound 3.16 µM)?
Answer: 95.5%

Question: And the viability, T/C (second compound 0.1 µM, first compound 10 µM)?
Answer: 96.3%

Question: And the viability, T/C [5]?
Answer: 92.6%

Question: And the viability, T/C (second compound 0.316 µM, first compound 0.1 µM)?
Answer: 105%

Question: And the viability, T/C [6]?
Answer: 99.8%

Question: And the viability, T/C (second compound 0.316 µM, first compound 1 µM)?
Answer: 98%

Question: And the viability, T/C (second compound 0.316 µM, first compound 3.16 µM)?
Answer: 105%

Question: What about the viability, T/C (second compound 0.316 µM, first compound 10 µM) of the same molecule?
Answer: 104%

Question: What about the viability, T/C [7] of the same molecule?
Answer: 128%

Question: And the viability, T/C (second compound 1 µM, first compound 0.1 µM)?
Answer: 85.8%

Question: And the viability, T/C [8]?
Answer: 98.2%

Question: And the viability, T/C (second compound 1 µM, first compound 1 µM)?
Answer: 98.3%

Question: And the viability, T/C (second compound 1 µM, first compound 3.16 µM)?
Answer: 97%

Question: What about the viability, T/C (second compound 1 µM, first compound 10 µM) of the same molecule?
Answer: 108%

Question: What about the viability, T/C [9] of the same molecule?
Answer: 127%

Question: What about the viability, T/C (second compound 3.16 µM, first compound 0.1 µM) of the same molecule?
Answer: 89.3%

Question: What about the viability, T/C [10] of the same molecule?
Answer: 98.2%

Question: What about the viability, T/C (second compound 3.16 µM, first compound 1 µM) of the same molecule?
Answer: 105%

Question: And the viability, T/C (second compound 3.16 µM, first compound 3.16 µM)?
Answer: 99.9%

Question: And the viability, T/C (second compound 3.16 µM, first compound 10 µM)?
Answer: 113%

Question: And the viability, T/C [11]?
Answer: 90.9%

Question: What about the viability, T/C (second compound 10 µM, first compound 0.1 µM) of the same molecule?
Answer: 101%

Question: What about the viability, T/C [12] of the same molecule?
Answer: 109%

Question: And the viability, T/C (second compound 10 µM, first compound 1 µM)?
Answer: 92.2%

Question: What about the viability, T/C (second compound 10 µM, first compound 3.16 µM) of the same molecule?
Answer: 98.8%

Question: What about the viability, T/C (second compound 10 µM, first compound 10 µM) of the same molecule?
Answer: 99.9%

Question: What does the source list for `CCc1c2c(nc3ccc(O)cc13)-c1cc3c(c(=O)n1C2)COC(=O)[C@]3(O)CC` + Cc1cnc(CNC(=O)c2c(=O)c3ccc(N4CCCN(C)CC4)nc3n3c2sc2ccccc23)cn1?
Answer: IC50 (second compound 0.0316 µM): 5.88 nM; IC50 (second compound 0.1 µM): 7.11 nM; IC50 (second compound 0.316 µM): 3.96 nM; IC50 (second compound 1 µM): < 0.999 nM; IC50 (second compound 3.16 µM): < 0.999 nM; IC50 (second compound 10 µM): < 0.999 nM; viability, T/C (second compound 0.0316 µM, first compound 0.000999 µM): 90.8%; viability, T/C (second compound 0.0316 µM, first compound 0.00316 µM): 56%; viability, T/C (second compound 0.0316 µM, first compound 0.00999 µM): 46.3%; viability, T/C [1]: 27.8%; viability, T/C (second compound 0.0316 µM, first compound 0.0999 µM): 23.3%; viability, T/C [2]: 17.6%; viability, T/C (second compound 0.1 µM, first compound 0.000999 µM): 79.3%; viability, T/C (second compound 0.1 µM, first compound 0.00316 µM): 56.8%; viability, T/C (second compound 0.1 µM, first compound 0.00999 µM): 53.2%; viability, T/C [3]: 24.5%; viability, T/C (second compound 0.1 µM, first compound 0.0999 µM): 23.4%; viability, T/C [4]: 13.9%; viability, T/C (second compound 0.316 µM, first compound 0.000999 µM): 60.5%; viability, T/C (second compound 0.316 µM, first compound 0.00316 µM): 53.7%; viability, T/C (second compound 0.316 µM, first compound 0.00999 µM): 40.9%; viability, T/C [5]: 31.9%; viability, T/C (second compound 0.316 µM, first compound 0.0999 µM): 30.1%; viability, T/C [6]: 16.9%; viability, T/C (second compound 1 µM, first compound 0.000999 µM): 44.8%; viability, T/C (second compound 1 µM, first compound 0.00316 µM): 37.6%; viability, T/C (second compound 1 µM, first compound 0.00999 µM): 38.3%; viability, T/C [7]: 31.8%; viability, T/C (second compound 1 µM, first compound 0.0999 µM): 29.5%; viability, T/C [8]: 4.66%; viability, T/C (second compound 3.16 µM, first compound 0.000999 µM): 33.5%; viability, T/C (second compound 3.16 µM, first compound 0.00316 µM): 39.9%; viability, T/C (second compound 3.16 µM, first compound 0.00999 µM): 36.5%; viability, T/C [9]: 27.9%; viability, T/C (second compound 3.16 µM, first compound 0.0999 µM): 25.4%; viability, T/C [10]: 1.29%; viability, T/C (second compound 10 µM, first compound 0.000999 µM): 40.2%; viability, T/C (second compound 10 µM, first compound 0.00316 µM): 32.5%; viability, T/C (second compound 10 µM, first compound 0.00999 µM): 31.1%; viability, T/C [11]: 24.7%; viability, T/C (second compound 10 µM, first compound 0.0999 µM): 23.3%; viability, T/C [12]: 0.64%
